Measured values as given in patent US20080287396A1, “Phosphonated Fluoroquinolones, Antibacterial Analogs Thereof, and Methods for the Prevention and Treatment of Bone and Joint Infections” (TARGANTA THERAPEUTICA INC., priority 2005, published 2008).
Entries after “also recorded” stand apart in the source; their conditions may differ.

How the values were obtained:
[1] = Bone powder binding, fluorometric detection; conditions: for Binding to bone (%) Fluorescence: 1 mg/ml compound, bone meal powder 10 mg/ml in PBS, 37° C., 1 h; for binding to osseous matter, in words: bisphosphonates bearing three hydroxy groups
Experimental: The ability of the example molecules to bind to bone powder was established in two parallel fashions, using either LC/MS or fluorometric detection. For LC/MS detection, a stock solution (5 mM) of the compound to be tested was added to 0.1M Tris-HCl buffer pH 7, 0.15M NaCl to reach a final concentration of 100 μM. Triplicate samples (1 mL) of the compound solutions were intensively shaken for 10 min with or without 25 mg of fresh or 20 mg of vacuum dried ground rat tibia bone. The samples were then centrifuged for 15 min at 10 000 g. The presence of unbound compound was measured by injection of 30 μL of each of the supernatants into an Agilent 1100™ LC/UV system. For fluorometric detection, an individual compound was dissolved in PBS or water (compound 52) and resuspended at a concentration of 1 mg/ml in a slurry of bone meal powder (Now Foods, Bloomingdale, Ill., USA) in PBS at 10 mg/ml. The suspension of drug/prodrug in bone meal powder was incubated at 37° C. for 1 h to allow for binding, and centrifuged at 13 000 rpm for 2 min, before recovering the supernatant. The bone meal powder pellet was then washed three times with 1 ml of PBS. All supernatants were saved and assessed for fluoroquinolone content by fluorescence measurements at excitation/emission wavelengths of 280/465 nm. The amount of fluoroquinolone was determined from standard curves generated for each experiment. Amount of drug/prodrug bound to bone powder was deduced from the difference between the input amount (typically 1 mg) and the amount recovered in the supernatants after binding. In all binding experiments, >99% of input drug was recovered in the supernatant for the parent drugs.

S. aureus ATCC 13709 = experiment: Prophylactic model of bone infection in rats; type: in vivo, rat; conditions: for prophylactic effect in rat model of bone infection, in words: Table 4 and FIGS. 6-8, doses as in Table 4
Experimental: To determine the activity in vivo of bisphosphonated prodrugs of fluoroquinolones, compounds 52 and 107, derivatives of parent compounds moxifloxacin 3 (for 52), and compounds 39, 44, 49, 54, 121, 129, 141, 145, 149, derivatives of parent compound gatifloxacin 15, were used in a prophylactic model for infection. Specifically, S. aureus ATCC 13709 cells were grown overnight at 37° C. in brain heart infusion broth (BHIB). Cells were subcultured into fresh BHIB and incubated for 4 to 5 h at 37° C. The cells were washed twice with phosphate-buffered saline (PBS) and resuspended in BHIB supplemented with 10% (vol./vol.) fetal bovine serum at a density of approximately 10^10 colony forming units (CFU)/ml (based upon turbidimetry). The suspension was aliquoted and a portion was used to check the CFU count. The culture was stored frozen (−80° C.) and was used without subculture. For use as an inoculum the culture was thawed, diluted in PBS and kept in an ice bath until it was used.
Animals were infected as described by O'Reilly et al. (Antimicrobial Agents and Chemotherapy (1992), 36(12): 2693-97) to generate the bone infection. Female CD rats (age, 57 to 70 days; n=5/group; Charles River, St-Constant, Canada) were anaesthetized by isofluorane before and during the surgery. Following complete induction of anesthesia, the rat was placed ventral side up and hair was shaved from the surgical site. The skin over the leg was cleaned and disinfected (proviodine-ethanol 70%). A longitudinal incision below the knee joint was made in the sagital plane. The incision was made over the bone below the “knee joint” (tibia head or condyle) but not completely extending to the ankle. A high speed drill fitted with a 2 mm bulb bit was used to drill a hole into the medullar cavity of the tibia. Rats were injected intra-tibially with 0.05 ml 5% sodium morrhuate (sclerosing agent) and then with 0.05 ml of S. aureus suspension (ca. 5×10^5 CFU/rat). The hole was sealed by applying a small amount of dry dental cement which immediately absorbs fluids and adheres to the site. The wound was closed using 3 metal skin clips. Moxifloxacin 3 (as a positive control) was injected once at 10 mg/kg intravenously 1 h postinfection in saline, while the fluoroquinolone prodrugs (prepared in 0.9% saline) were injected as a single intravenous bolus dose at different time points prior to the infection. For comparison, the parent drug (moxifloxacin 3 or gatifloxacin 15) was also injected intravenously once at a molar equivalent dose at the same time point prior the infection.
Infected rats were sacrificed by CO2 asphyxiation 24 h postinfection to monitor the bacterial CFU count. Infected tibiae were removed, dissected free of soft tissue, and weighed. The bones were ground using a metal ball mill, resuspended in 5 ml 0.9% NaCl, serially diluted and processed for quantitative cultures. For compounds 39, 44, 49, 54, 141, 145, 149, 1 ml of the 0.9% NaCl solution was added to 50 mg of charcoal before serial dilutions. Treatment efficacies were measured in terms of Log viable bacteria (Log CFU per gram of bone). The results obtained for each group of rats were evaluated by calculating the mean Log CFU and standard deviation. The limit of detection is 2 Log CFU/g of bone. Statistical comparisons of viable bacterial counts for the different treated and untreated groups were performed with Dunnett's multiple-comparison test. Differences were considered significant when the P value was <0.05 when comparing treated infected animals to the untreated infected ones.

[2] = 15 mg/kg IV, 2 days prior to infection

Compound | Binding to bone (%) Fluorescence [1] [%] | prophylactic effect in rat model of bone infection, in words (S. aureus ATCC 13709) | further results
CCCC(=O)Oc1ccc(P(=O)(O)CP(=O)(O)O)cc1C(C)(C)CC(=O)N1CCN(c2c(F)cc3c(=O)c(C(=O)O)cn(C4CC4)c3c2OC)CC1C (centres unmarked) [Compound 149, 7-(4-(3-(2-butyroxy-5-((phosphonomethyl)phosphonoyl)phenyl)-3-methylbutanoyl)-3-methylpiperazin-1-yl)-1-cyclopropyl-6-fluoro-1,4-dihydro-8-methoxy-4-oxoquinoline-3-carboxylic acid] | 89.6 | unable to produce a positive result in vivo | binding to osseous matter, in words [1]: less effectively bound; Measured bacterial titer (Log CFU/g of bone) Test compound (S. aureus ATCC 13709; [2]): 5.16 ± 0.72 Log CFU/g of bone
COc1c(N2CCN(CCC(=O)c3ccc(OCCCC(P(=O)(O)O)P(=O)(O)O)cc3)C(C)C2)c(F)cc2c(=O)c(C(=O)O)cn(C3CC3)c12 (centres unmarked) [Compound 121, 1-cyclopropyl-6-fluoro-1,4-dihydro-7-(4-(3-(4-(4,4-bisphosphonobutoxy)phenyl)-3-oxopropyl)-3-methylpiperazin-1-yl)-8-methoxy-4-oxoquinoline-3-carboxylic acid] | 94.7 | efficient prophylactic effect | Measured bacterial titer (Log CFU/g of bone) Test compound (S. aureus ATCC 13709; 20.8 mg/kg IV, 1 day prior to infection): 3.01 ± 0.47 Log CFU/g of bone
COc1c(N2CCNC(C)C2)c(F)cc2c(=O)c(C(=O)OCC(=O)NCCCC[C@@H](NC(=O)COC(=O)c3cn(C4CC4)c4c(OC)c(N5CCNC(C)C5)c(F)cc4c3=O)C(=O)NC(P(=O)(O)O)P(=O)(O)O)cn(C3CC3)c12 (some centres unmarked) [Compound 134] | 92.8 |  | 
COc1c(N2CCN(C(=O)CC(C)(C)c3cc(P(=O)(O)CP(=O)(O)O)ccc3OP(=O)(O)O)C(C)C2)c(F)cc2c(=O)c(C(=O)O)cn(C3CC3)c12 (centres unmarked) [Compound 153, 7-(4-(3-(2-phosphoryloxy-5-((phosphonomethyl)phosphonoyl)phenyl)-3-methylbutanoyl)-3-methylpiperazin-1-yl)-1-cyclopropyl-6-fluoro-1,4-dihydro-8-methoxy-4-oxoquinoline-3-carboxylic acid] | 0 | unable to produce a positive result in vivo | binding to osseous matter, in words [1]: less effectively bound; also recorded: not bound at all; Measured bacterial titer (Log CFU/g of bone) Test compound (S. aureus ATCC 13709; [2]): 4.08 ± 0.54 Log CFU/g of bone
O=C(O)c1cn(C2CC2)c2cc(N3CCNCC3)c(F)cc2c1=O [Compound 6, Ciprofloxacin, reference compound] | 0 |  | 
COc1c(N2C[C@@H]3CCCN(C(=O)OCC(=O)Nc4ccc(CC(P(=O)(O)O)P(=O)(O)O)cc4)[C@@H]3C2)c(F)cc2c(=O)c(C(=O)O)cn(C3CC3)c12 [Compound 117, 7-((4aS,7aS)-1-(((4-(2,2-bisphosphonoethyl)phenylcarbamoyl)methoxy)carbonyl)-octahydropyrrolo[3,4-b]pyridin-6-yl)-1-cyclopropyl-6-fluoro-1,4-dihydro-8-methoxy-4-oxoquinoline-3-carboxylic acid] | 99.4 |  | 

More lines, main results first:

Binding to bone (%) Fluorescence [1] [%] | Compound | prophylactic effect in rat model of bone infection, in words (S. aureus ATCC 13709) | further results
99.0 | COc1c(N2C[C@@H]3CCCN[C@@H]3C2)c(F)cc2c(=O)c(C(=O)SCC(=O)NC(P(=O)(O)O)P(=O)(O)O)cn(C3CC3)c12 [Compound 99, S-(1,1-Bisphosphonomethylcarbamoyl)methyl 1-cyclopropyl-6-fluoro-1,4-dihydro-7-((4aS,7aS)-octahydropyrrolo[3,4-b]pyridin-6-yl)-8-methoxy-4-oxoquinoline-3-carbothioate] |  | 
99.9 | COc1c(N2C[C@@H]3CCCN[C@@H]3C2)c(F)cc2c(=O)c(C(=O)SCCCC(P(=O)(O)O)P(=O)(O)O)cn(C3CC3)c12 [Compound 94, S-4,4-bisphosphonobutyl 7-((4aS,7aS)-octahydropyrrolo[3,4-b]pyridin-6-yl)-1-cyclopropyl-6-fluoro-1,4-dihydro-8-methoxy-4-oxoquinoline-3-carbothioate] |  | 
97.3 | COc1c(N2C[C@@H]3CCCN[C@@H]3C2)c(F)cc2c(=O)c(C(=O)OCC(=O)N(C)C(P(=O)(O)O)P(=O)(O)O)cn(C3CC3)c12 [Compound 80, (N-Methyl-1,1-Bisphosphonomethylcarbamoyl)methyl 1-cyclopropyl-6-fluoro-1,4-dihydro-7-((4aS,7aS)-octahydropyrrolo[3,4-b]pyridin-6-yl)-8-methoxy-4-oxoquinoline-3-carboxylate] |  | 
98.2 | COc1c(N2C[C@@H]3CCCN(C(=O)CC(P(=O)(O)O)P(=O)(O)O)[C@@H]3C2)c(F)cc2c(=O)c(C(=O)O)cn(C3CC3)c12 [Compound 107, 7-((4aS,7aS)-1-(3,3-bisphosphonopropionyl)-octahydropyrrolo[3,4-b]pyridin-6-yl)-1-cyclopropyl-6-fluoro-1,4-dihydro-8-methoxy-4-oxoquinoline-3-carboxylic acid] | lack of effect | Measured bacterial titer (Log CFU/g of bone) Test compound (S. aureus ATCC 13709; 19.4 mg/kg IV, 1 day prior to infection): 5.40 ± 0.93 Log CFU/g of bone
97.2 | COc1c(N2C[C@@H]3CCCN[C@@H]3C2)c(F)cc2c(=O)c(C(=O)OCC(=O)Nc3ccc(CC(P(=O)(O)O)P(=O)(O)O)cc3)cn(C3CC3)c12 [Compound 62, (4-(2,2-Bisphosphonoethyl)phenylcarbamoyl)methyl 1-cyclopropyl-6-fluoro-1,4-dihydro-7-((4aS,7aS)-octahydropyrrolo[3,4-b]pyridin-6-yl)-8-methoxy-4-oxoquinoline-3-carboxylate] |  | 
82.5 | COc1c(N2CCN(C(=O)CC(P(=O)(O)O)P(=O)(O)O)C(C)C2)c(F)cc2c(=O)c(C(=O)O)cn(C3CC3)c12 (centres unmarked) [Compound 112, 7-(4-(3,3-bisphosphonopropionyl)-3-methylpiperazin-1-yl)-1-cyclopropyl-6-fluoro-1,4-dihydro-8-methoxy-4-oxoquinoline-3-carboxylic acid] |  | 
98.7 | COc1c(N2CCNC(C)C2)c(F)cc2c(=O)c(C(=O)SCCCC(P(=O)(O)O)P(=O)(O)O)cn(C3CC3)c12 (centres unmarked) [Compound 96, S-4,4-bisphosphonobutyl 7-(3-methylpiperazin-1-yl)-1-cyclopropyl-6-fluoro-1,4-dihydro-8-methoxy-4-oxoquinoline-3-carbothioate] |  | 
